In patent publication US20250367329A1, “GENE THERAPY FOR TREATING MITOCHONDRIAL STRESS” (YISSUM RESEARCH DEVELOPMENT COMPANY OF THE HEBREW …, priority 2023, published 2025):

Tested on: E6/E7LOW human hepatocytes
Experiment: Puromycin toxicity curves, LIVE/DEAD assay
Type: cell-based
Details: 653 (female) genotype
Experimental: E6/E7LOW human hepatocytes puromycin toxicity curves: Puromycin (13884, Cayman chemical) was two-fold serially diluted from 10 μg/ml to 0.3 μg/ml in proliferation medium and applied to E6/E7LOW human hepatocytes growing in 96-well plate format. The cells were monitored and imaged daily and on the 3rd day post exposure were analyzed with a LIVE/DEAD assay (L3224, ThermoFischer). The puromycin concentration killing practically all cells in ˜3 days was defined as 2.5 μg/ml for the 653 (female) genotype and 5 µg/ml for the 422 (male) genotype cells.

COc1ccc(C[C@H](N)C(=O)N[C@H]2[C@@H](O)[C@H](n3cnc4c(N(C)C)ncnc43)O[C@@H]2CO)cc1 [Puromycin]
puromycin concentration killing practically all cells in ˜3 days: 2.5 µg/mL
